One test concerns the target human orexin 1 receptor (Homo sapiens (Human), UniProt O43613). Put plainly: Human orexin 1 receptor radioligand binding (competitive binding, CHO membranes).
The target of the next test is rat orexin 1 receptor (Rattus norvegicus (Rat), UniProt P56718). Put plainly: Rat orexin 1 receptor radioligand binding (competitive binding, HEK293 membranes).
The target in another test is human orexin 2 receptor (Homo sapiens (Human), UniProt O43614). Put plainly: Human orexin 2 receptor radioligand binding ([3H]-EMPA competition, HEK293 membranes).
Sequence of human orexin 2 receptor (O43614 whole entry): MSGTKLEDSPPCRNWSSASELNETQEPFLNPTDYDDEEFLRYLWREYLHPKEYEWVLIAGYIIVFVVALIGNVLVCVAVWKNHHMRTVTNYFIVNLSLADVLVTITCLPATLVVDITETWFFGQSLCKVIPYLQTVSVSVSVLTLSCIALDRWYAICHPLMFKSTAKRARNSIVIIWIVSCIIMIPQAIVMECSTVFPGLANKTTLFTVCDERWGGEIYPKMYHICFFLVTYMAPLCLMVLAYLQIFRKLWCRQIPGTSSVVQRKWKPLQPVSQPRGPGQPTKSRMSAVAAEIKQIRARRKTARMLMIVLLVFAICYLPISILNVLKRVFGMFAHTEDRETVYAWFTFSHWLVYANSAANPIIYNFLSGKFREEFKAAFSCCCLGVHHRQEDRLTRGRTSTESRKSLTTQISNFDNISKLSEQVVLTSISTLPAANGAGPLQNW
Where [1] appears, read: human orexin 2 receptor, Table 2, averages from between 2-20 runs, read-out: hOX2 Ki.
Setting [2] is: rat orexin 1 receptor, Table 2, averages from between 2-20 runs, read-out: rOX1 Ki.
Where [3] appears, read: human orexin 2 receptor, Table 2, averages of 2-20 runs, read-out: hOX2 Ki.
Setting [4] is: Table 2, further testing, averages from 2-20 runs, read-out: rOX1 Ki.
The mark [5] stands for this setting: Table 2, further testing, averages from 2-20 runs, read-out: hOX2 Ki.
Setting [6] is: human orexin 1 receptor, Table 2, averages of 2-20 runs, read-out: hOX1 Ki.

Broadly, the Ki is a dissociation constant, usually derived from enzyme kinetics or from competition with a known ligand.

Where two headings read alike, the source gives them in different places.

Sequence of rat orexin 1 receptor (P56718 whole entry): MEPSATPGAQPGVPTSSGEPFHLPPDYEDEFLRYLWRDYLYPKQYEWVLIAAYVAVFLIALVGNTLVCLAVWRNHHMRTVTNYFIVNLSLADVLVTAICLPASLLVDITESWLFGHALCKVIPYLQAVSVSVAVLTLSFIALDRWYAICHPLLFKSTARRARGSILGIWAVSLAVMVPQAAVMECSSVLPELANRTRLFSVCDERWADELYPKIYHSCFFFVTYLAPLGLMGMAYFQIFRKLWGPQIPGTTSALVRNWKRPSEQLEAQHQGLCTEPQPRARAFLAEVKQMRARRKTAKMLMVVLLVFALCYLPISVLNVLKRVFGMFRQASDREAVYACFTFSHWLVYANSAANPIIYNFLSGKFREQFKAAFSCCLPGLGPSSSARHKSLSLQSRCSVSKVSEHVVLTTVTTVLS
Sequence of human orexin 1 receptor (O43613 whole entry): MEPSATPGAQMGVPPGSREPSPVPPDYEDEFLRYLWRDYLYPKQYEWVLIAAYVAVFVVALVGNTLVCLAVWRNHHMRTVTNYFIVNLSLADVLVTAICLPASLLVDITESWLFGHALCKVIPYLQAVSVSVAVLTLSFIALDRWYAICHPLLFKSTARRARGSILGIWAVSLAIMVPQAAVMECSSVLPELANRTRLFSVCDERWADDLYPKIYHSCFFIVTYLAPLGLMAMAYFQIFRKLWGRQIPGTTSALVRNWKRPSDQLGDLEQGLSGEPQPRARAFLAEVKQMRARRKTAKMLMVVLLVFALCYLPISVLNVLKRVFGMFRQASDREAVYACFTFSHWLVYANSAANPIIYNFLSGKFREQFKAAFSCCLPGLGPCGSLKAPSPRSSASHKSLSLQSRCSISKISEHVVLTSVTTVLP

As for `CCOc1ncc2ccccc2c1C(=O)N1C2CCC1C(COc1ccccn1)C2` (racemic) [Example 83, (±)-(3-ethoxyisoquinolin-4-yl)(2-((pyridin-2-yloxy)methyl)-7-azabicyclo[2.2.1]heptan-7-yl)methanone], the Ki on human orexin 1 receptor came out at 13 nM.

Turning to `Cc1cccc(C(=O)N2C3CCC2C(Oc2ccc(C(F)(F)F)nc2)C3)c1-n1nccn1` (racemic) [Example 437], the Ki on rat orexin 1 receptor and on human orexin 2 receptor (setting [1]) was more than 10000 nM throughout.

With `O=C(c1cccnc1-n1nccn1)N1[C@@H]2CC[C@H]1[C@H](Nc1cnc(C(F)(F)F)cn1)C2` [Example 402, (2-(2H-1,2,3-triazol-2-yl)pyridin-3-yl)((1S,2R,4R)-2-((5-(trifluoromethyl)pyrazin-2-yl)amino)-7-azabicyclo[2.2.1]heptan-7-yl)methanone], the Ki on rat orexin 1 receptor (setting [2]) is 575 nM; at human orexin 2 receptor (setting [1]), more than 10000 nM.

As for `COc1ccc(C(=O)N2[C@@H]3CC[C@H]2[C@H](Nc2cnc(C(F)(F)F)cn2)C3)c(Cl)n1` [Example 413, (2-chloro-6-methoxypyridin-3-yl)((1S,2R,4R)-2-((5-(trifluoromethyl)pyrazin-2-yl)amino)-7-azabicyclo[2.2.1]heptan-7-yl)methanone], the Ki on rat orexin 1 receptor (setting [2]) and on human orexin 2 receptor (setting [1]) was more than 10000 nM in each case.

Turning to `Cc1cccc(C(=O)N2[C@@H]3CC[C@H]2[C@H](Nc2cnc(C(F)(F)F)cn2)C3)c1-c1ncco1` [Example 266, (3-methyl-2-(oxazol-2-yl)phenyl)((1S,2R,4R)-2-((5-(trifluoromethyl)pyrazin-2-yl)amino)-7-azabicyclo[2.2.1]heptan-7-yl)methanone], the Ki at rat orexin 1 receptor (setting [2]) was 6 nM.

Turning to `O=C(c1cc(F)ccc1-c1ncccn1)N1C2CCC1C(COc1ccc(F)cn1)C2` (racemic) [Example 32, (4)-(5-fluoro-2-(pyrimidin-2-yl)phenyl)(2-(((5-fluoropyridin-2-yl)oxy)methyl)-7-azabicyclo[2.2.1]heptan-7-yl)methanone], the Ki at human orexin 2 receptor (setting [3]) came to 130 nM.

Consider `O=C(c1cccc(F)c1-c1ncccn1)N1C2CCC1C(COc1ccc(F)cn1)C2` (racemic) [Example 124, (±)-(3-fluoro-2-(pyrimidin-2-yl)phenyl)(-2-(((5-fluoropyridin-2-yl)oxy)methyl)-7-azabicyclo[2.2.1]heptan-7-yl)methanone], for which the Ki on human orexin 1 receptor is 75 nM.

For the compound `COc1c(F)cccc1C(=O)N1C2CCC1C(Nc1ccc(F)cn1)C2` (racemic) [Example 237, (±)-(3-fluoro-2-methoxyphenyl)(2-((5-fluoropyridin-2-yl)amino)-7-azabicyclo[2.2.1]heptan-7-yl)methanone], the Ki at rat orexin 1 receptor (setting [2]) was more than 1000 nM.

Regarding `O=C(c1cccc(F)c1-c1ncccn1)N1[C@@H]2CC[C@H]1[C@H](Nc1nc(C(F)(F)F)cs1)C2` [Example 418, (3-fluoro-2-(pyrimidin-2-yl)phenyl)((1S,2R,4R)-2-((4-(trifluoromethyl)thiazol-2-yl)amino)-7-azabicyclo[2.2.1]heptan-7-yl)methanone], the Ki at rat orexin 1 receptor (setting [2]) is 459 nM; at human orexin 2 receptor (setting [1]) it was 2500 nM.

In the case of `Cc1cnc(-n2nccn2)c(C(=O)N2C3CCC2C(Oc2ccc(C(F)(F)F)cn2)C3)c1` (racemic) [Example 428], the Ki was 1100 nM on rat orexin 1 receptor and more than 10000 nM on human orexin 2 receptor (setting [1]).

`O=C(c1cccc(F)c1-c1ncccn1)N1C2CCC1C(Oc1cnc(C(F)(F)F)cn1)C2` (racemic) [Example 447, (R/S)-(3-fluoro-2-(pyrimidin-2-yl)phenyl)(2-((5-(trifluoromethyl)pyrazin-2-yl)oxy)-7-azabicyclo[2.2.1]heptan-7-yl)methanone]: the Ki on rat orexin 1 receptor (setting [4]) was 293 nM; at human orexin 2 receptor (setting [5]) it was more than 10000 nM.

In the case of `O=C(c1ccccc1-n1cccn1)N1C2CCC1C(COc1ccc(F)cn1)C2` (racemic) [Example 26, (±)-2-(1H-pyrazol-1-yl)phenyl)(2-(((5-fluoropyridin-2-yl)oxy)methyl)-7-azabicyclo[2.2.1]heptan-7-yl)methanone], the Ki at human orexin 1 receptor (setting [6]) was 134 nM.

As to `Cc1cnc(-c2ncccn2)c(C(=O)N2[C@@H]3CC[C@H]2[C@H](Nc2ncc(C(F)(F)F)cc2F)C3)c1` [Example 455, ((1S,2R,4R)-2-((3-fluoro-5-(trifluoromethyl)pyridin-2-yl)amino)-7-azabicyclo[2.2.1]heptan-7-yl)(5-methyl-2-(pyrimidin-2-yl)pyridin-3-yl)methanone], the results for the Ki at rat orexin 1 receptor (setting [4]) and at human orexin 2 receptor (setting [5]) were 464 nM and more than 10000 nM, respectively.

On to `O=C(c1cccc(F)c1-n1nccn1)N1C2CCC1C(Oc1cnc(C(F)(F)F)cn1)C2` (racemic) [Example 445, (R/S)-(3-fluoro-2-(2H-1,2,3-triazol-2-yl)phenyl)(2-((5-(trifluoromethyl)pyrazin-2-yl)oxy)-7-azabicyclo[2.2.1]heptan-7-yl)methanone], for which the Ki on rat orexin 1 receptor (setting [4]) was 460 nM; on human orexin 2 receptor (setting [5]), more than 10000 nM.

On to `Cc1cnc(-c2ncccn2)c(C(=O)N2[C@@H]3CC[C@H]2[C@H](Nc2cnc(C(F)(F)F)cn2)C3)c1` [Example 404, (5-methyl-2-(pyrimidin-2-yl)pyridin-3-yl)((1S,2R,4R)-2-((5-(trifluoromethyl)pyrazin-2-yl)amino)-7-azabicyclo[2.2.1]heptan-7-yl)methanone], for which the Ki on rat orexin 1 receptor (setting [2]) was 419 nM; at human orexin 2 receptor (setting [1]) it was more than 10000 nM.

In turn, `O=C(c1ccccc1-c1cccs1)N1C2CCC1C(COc1ccc(F)cn1)C2` (racemic) [Example 11, (±)-(2-(((5-fluoropyridin-2-yl)oxy)methyl)-7-azabicyclo[2.2.1]heptan-7-yl)(2-(thiophen-2-yl)phenyl)methanone] yielded a Ki on human orexin 2 receptor of 13 nM.

For the compound `O=C(c1cccc(F)c1-n1nccn1)N1C2CCC1C(Oc1ccc(C(F)(F)F)nc1)C2` (racemic) [Example 438], the inhibitory constant (Ki) on rat orexin 1 receptor (setting [2]) and at human orexin 2 receptor (setting [1]) was more than 10000 nM each time.

With `O=C(c1cccc(F)c1-n1nccn1)N1C2CCC1C(Oc1ncc(Br)cn1)C2` (racemic) [Example 441], the inhibition constant Ki on rat orexin 1 receptor is 1500 nM; on human orexin 2 receptor (setting [1]), more than 10000 nM.

For `O=C(c1cccc(F)c1-n1nccn1)N1C2CCC1C(Oc1cc(Br)cnc1Cl)C2` (racemic) [Example 443], the Ki on rat orexin 1 receptor (setting [2]) and on human orexin 2 receptor (setting [1]) was more than 10000 nM in each case.

In the case of `O=C(c1cccc(F)c1-c1ncccn1)N1[C@@H]2CC[C@H]1[C@H](Nc1nnc(C(F)(F)F)s1)C2` [Example 419, (3-fluoro-2-(pyrimidin-2-yl)phenyl)((1S,2R,4R)-2-((5-(trifluoromethyl)-1,3,4-thiadiazol-2-yl)amino)-7-azabicyclo[2.2.1]heptan-7-yl)methanone], the Ki on rat orexin 1 receptor (setting [2]) came out at 853 nM; on human orexin 2 receptor (setting [1]) it was 7400 nM.

`Cc1ccc(C(=O)N2C3CCC2C(Oc2ccc(C(F)(F)F)cn2)C3)c(-n2nccn2)n1` (racemic) [Example 427]: the Ki on rat orexin 1 receptor was 560 nM; on human orexin 2 receptor (setting [1]), more than 10000 nM.

For `O=C(c1c(F)cccc1-n1nccn1)N1C2CCC1C(Oc1ccc(C(F)(F)F)nc1)C2` (racemic) [Example 439], the Ki on rat orexin 1 receptor (setting [2]) and at human orexin 2 receptor (setting [1]) was more than 10000 nM each time.

As to `Cc1ccc(C(=O)N2C3CCC2C(Oc2cnc(C(F)(F)F)cn2)C3)c(-n2nccn2)n1` (racemic) [Example 446, (R/S)-(6-methyl-2-(2H-1,2,3-triazol-2-yl)pyridin-3-yl)(2-((5-(trifluoromethyl)pyrazin-2-yl)oxy)-7-azabicyclo[2.2.1]heptan-7-yl)methanone], the inhibition constant Ki is 4700 nM on rat orexin 1 receptor (setting [4]) and more than 10000 nM on human orexin 2 receptor (setting [5]).

In the case of `Cc1coc(-c2ccc(C)nc2C(=O)N2[C@@H]3CC[C@H]2[C@H](COc2ncc(F)cn2)C3)n1` [Example 179, ((1S,2R,4R)-2-(((5-fluoropyrimidin-2-yl)oxy)methyl)-7-azabicyclo[2.2.1]heptan-7-yl)(6-methyl-3-(4-methyloxazol-2-yl)pyridin-2-yl)methanone], the Ki at rat orexin 1 receptor (rat orexin 1 receptor, Table 2, averages of 2-20 runs, read-out: rOX1 Ki) came to 2400 nM; on human orexin 2 receptor (setting [3]), 5400 nM.

For `O=C(c1c(F)cccc1-n1nccn1)N1C2CCC1C(Oc1ccc(C(F)(F)F)cn1)C2` (racemic) [Example 425], the values for the Ki on rat orexin 1 receptor (setting [2]) and at human orexin 2 receptor were 587 nM and 5100 nM, respectively.

On human orexin 1 receptor, `O=C(c1c(F)cccc1-c1ncccn1)N1C2CCC1C(COc1ccc(F)cn1)C2` (racemic) [Example 31, (±)-(2-fluoro-6-(pyrimidin-2-yl)phenyl)(2-(((5-fluoropyridin-2-yl)oxy)methyl)-7-azabicyclo[2.2.1]heptan-7-yl)methanone] had a Ki of 43 nM.

In the case of `O=C(c1cccc(F)c1-n1ccnn1)N1C2CCC1C(Oc1ccc(C(F)(F)F)cn1)C2` (racemic) [Example 424], the Ki at rat orexin 1 receptor (setting [2]) was 2700 nM; at human orexin 2 receptor (setting [1]), more than 10000 nM.

As to `O=C(c1cccc(F)c1-n1nccn1)N1C2CCC1C(Oc1cnc3ccccc3n1)C2` (racemic) [Example 442], the Ki turned out to be 349 nM on rat orexin 1 receptor (setting [2]) and 1900 nM at human orexin 2 receptor (setting [1]).

With `Cc1cc(C)nc(OCC2CC3CCC2N3C(=O)c2ccccc2-c2cccs2)n1` (racemic) [Example 46, (±)-(2-(((4,6-dimethylpyrimidin-2-yl)oxy)methyl)-7-azabicyclo[2.2.1]heptan-7-yl)(2-(thiophen-2-yl)phenyl)methanone], on human orexin 1 receptor (setting [6]), the Ki stood at 111 nM.

Consider `Cc1cnc(-c2ncccn2)c(C(=O)N2[C@@H]3CC[C@H]2[C@H](Nc2ccc(C(F)(F)F)cn2)C3)c1` [Example 378, (5-methyl-2-(pyrimidin-2-yl)pyridin-3-yl)((1S,2R,4R)-2-((5-(trifluoromethyl)pyridin-2-yl)amino)-7-azabicyclo[2.2.1]heptan-7-yl)methanone], for which the Ki on rat orexin 1 receptor (setting [2]) is 310 nM; on human orexin 2 receptor (setting [1]) it was more than 10000 nM.

Regarding `O=C(c1cccnc1-n1nccn1)N1C2CCC1C(Oc1ccc(C(F)(F)F)cn1)C2` (racemic) [Example 426], the values for the inhibition constant (Ki) on rat orexin 1 receptor and on human orexin 2 receptor were 5400 nM and more than 10000 nM, respectively.

Source of the values: patent US9637496B2, “Substituted 7-azabicycles and their use as orexin receptor modulators” (priority 2013, dated 2017).
